Reference: US5804576A, “Derivatives of 5-androsten-17-ones and 5-androstan-17-ones” (Research Corporation Technologies, Inc., priority 1986, dated 1998)
Like-named read-outs stand apart in the source and are kept apart here.

How the values were obtained:
[1] = target: T1, purified bovine adrenal G6PDH (Bos taurus, UniProt F1MMK2); experiment: Inhibition of purified bovine adrenal G6PDH; assay type: biochemical; settings: read-out: Percent Inhibition (G6PDH); for inhibition at 0.1 µM: Conc. 0.1 μm; for inhibition at 1 µM: Conc. 1 μm; for inhibition at 10 µM: Conc. 10 μm
T1 construct: full-length, wild type, no tag
Source text: The compounds listed below are screened as inhibitors of purified bovine adrenal G6PDH activity as one predictor of cancer preventive action. The assay for testing the inhibition of purified bovine adrenal G6PDH is according to the procedure by Oertel, G. W. and Rebelein, I. in Biochem. Biophys. Acta, 184, 459-460 (1969). The results are given below in Table I:
Both of the above tests, i.e., the inhibition of mammalian glucose-6-phosphate dehydrogenase (G6PDH) and the inhibition of tumor promoter (TPA) stimulation of ^3 H-thymidine incorporation in mouse epidermis are recognized as indicators of cancer prophylactic activity. The following Table compares the efficacy of representative compounds of the present invention in these two tests with that of DHEA: […]

[2] = Anti-obesity test (body weight, food consumption); assay type: in vivo, mouse (male A/J); settings: n = 5
Experimental: Male A/J mice (5 weeks old) were obtained from the Jackson Laboratory and were housed in polycarbonate cages (5 mice/cage) in animal quarters maintained at 24°±1° C. with 12 hours of light and 12 hours of darkness each day. One week after arrival, the mice were placed on a chow diet containing varying concentrations of DHEA or other steroid. Animals were weighed weekly; food consumption was determined weekly by subtracting the amount of food remaining in the cage from the amount added.
Male A/J (5 weeks old) were obtained from the Jackson Laboratory and were housed in polycarbonate cages (5 mice/cage) in animal quarters maintained at 24°±1° C. with 12 hours of light and 12 hours of darkness each day. One week after arrival, the mice were placed on a diet containing either DHEA, 19, or without steroid. Animals were weighed weekly. The concentration of DHEA or 19 used in the food was 0.54%.
Male A/J mice (5 weeks old) were obtained from the Jackson Laboratory and were housed in polycarbonate cages (5 mice/cage) in animal quarters maintained at 24°±1° C. with 12 hours of light and 12 hours of darkness each day. One week after arrival, the mice were placed on a show diet containing DHEA, 16, or 21 at 0.36%. Animals were weighed weekly.

[3] = tested on: TPA (Tumor Promoter) Stimulation of Mouse Epidermal DNA; experiment: Inhibition of TPA stimulation of mouse epidermal DNA synthesis (3H-thymidine incorporation), oral; assay type: in vivo, mouse (ICR male)
Source text: Synthesis rate by orally administered steroids.
The inhibition of tumor promoter stimulation of mouse epidermal DNA synthesis rate by steroids may also contribute to cancer preventive activity. The following assay is used:
(§1) ICR male mice (7-9 weeks old) were shaved on the back 1-2 days before use. Only mice showing no hair regrowth were used. Animals were orally intubated with a particular steroid suspended by homogenization in sesame oil or with sesame oil alone (controls). One hour later TPA (10 μg in 0.2 ml of acetone) or acetone vehicle was applied topically to the shaved skin. Twenty hours later, mice were injected i.p. with 60 μCi of ^3 H-thymidine 20 minutes before sacrifice. The animals were killed by cervical dislocation and the residual hair was removed with a depilatory agent. Epidermal scrapings were prepared according to the procedures of Hennings et al. (Cancer Res. 28, 53, 1968), homogenized in distilled water at 4° C., and the macromolecules precipitated with 0.4N trichloroacetic acid (TCA). Following 6 washes with absolute ethanol at room temperature, the nucleic acids were hydrolyzed with 0.5N TCA at 70° C. for 5 minutes. The hydrolysate (0.2 ml aliquots) were counted in an Intertechnique scintillation counter and assayed for DNA by the diphenylamine reaction.
(§2) The data are expressed as counts per minute (cpm) of tritium per μg of DNA.
A similar oral dose-response experiment with compound 16 and DHEA was performed.
Both of the above tests, i.e., the inhibition of mammalian glucose-6-phosphate dehydrogenase (G6PDH) and the inhibition of tumor promoter (TPA) stimulation of ^3 H-thymidine incorporation in mouse epidermis are recognized as indicators of cancer prophylactic activity. The following Table compares the efficacy of representative compounds of the present invention in these two tests with that of DHEA:
(§3) Male ICR mice were orally intubated with steroid suspended in sesame oil (0.5 ml/mouse) at the indicated dose. Mice not receiving steroid were given sesame oil alone. One hour later mice received topical application of TPA and 20 hours later the rate of ^3 H-thymidine incorporation into the epidermis was determined as described in Table 4.
as §3, with “TPA,” for “TPA”

[4] = tested on: TPA stimulation in DNA synthesis rate (mouse epidermis); experiment: Inhibition of TPA stimulation of mouse epidermal DNA synthesis, intraperitoneal; assay type: in vivo, mouse (ICR male); settings: i.p. dose-response
Experimental: as §1, §2
Compound 2 or 3 in comparison with DHEA by Intraperitoneal Injection.
Steroids were suspended in sterile 95% saline--5% Emulphor and injected intraperitoneally. Otherwise conditions were the same as when steroids were orally administered.

mouse breast epithilum = settings: in vivo; cited from earlier work
[5] = tested on: Epstein-Barr virus-induced transformation of human lymphocytes; settings: cited from earlier work
[6] = tested on: 3H-thymidine incorporation in mouse epidermis; settings: in vivo; cited from earlier work
[7] = tested on: mammalian glucose-6-phosphate dehydrogenase (G6PDH); settings: cited from earlier work
rat uterus = experiment: Uterotrophic test, subcutaneous (Compound 2 vs. DHEA); assay type: in vivo; settings: for Mean Uterine Weight: n = 4 or 5
Experimental: Twenty-two day old rats were obtained from Charles River Laboratories. Animals were used at 29 days of age. Test steroids were suspended by homogenization in sesame oil. Rats were orally intubated at 1-2 P.M. for 3 days with a test steroid in sesame oil or with sesame oil alone (control). On the 4th day the animals were killed and the uteri were removed and weighed.
Compound 2 vs. DHEA. Compounds Administered by Subcutaneous Injection
Steroids were dissolved in 2 ml ethanol and brought up to 5 ml volume with propylene glycol. Concentrations were such that 1 μl/gm body weight delivered the indicated dose.

T1 sequence (F1MMK2 31-70): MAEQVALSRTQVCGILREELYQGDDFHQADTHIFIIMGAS
T1 sequence (F1MMK2 101-575): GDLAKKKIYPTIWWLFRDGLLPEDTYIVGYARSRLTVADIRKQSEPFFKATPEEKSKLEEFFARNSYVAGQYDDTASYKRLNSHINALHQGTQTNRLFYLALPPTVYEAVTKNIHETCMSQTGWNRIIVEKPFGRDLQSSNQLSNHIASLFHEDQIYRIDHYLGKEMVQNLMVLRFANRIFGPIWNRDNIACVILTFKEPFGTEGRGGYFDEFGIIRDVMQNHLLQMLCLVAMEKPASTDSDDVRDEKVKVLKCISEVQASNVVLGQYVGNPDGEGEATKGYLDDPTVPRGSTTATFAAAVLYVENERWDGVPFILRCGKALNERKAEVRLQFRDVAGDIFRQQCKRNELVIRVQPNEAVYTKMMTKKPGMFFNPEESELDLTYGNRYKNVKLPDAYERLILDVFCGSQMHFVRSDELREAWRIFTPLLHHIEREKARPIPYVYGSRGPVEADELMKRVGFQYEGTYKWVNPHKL

Structure (SMILES) | inhibition at 0.1 µM [1] | inhibition at 1 µM [1] | inhibition at 10 µM [1] | mean weekly weight ([2]; 0.35% of diet, week 0) | mean weekly weight ([2]; 0.35% of diet, week 1) | mean weekly weight ([2]; 0.35% of diet, week 2) | mean weekly weight ([2]; 0.35% of diet, week 3) | mean weekly weight ([2]; 0.35% of diet, week 4) | mean weekly weight ([2]; 0.35% of diet, week 5) | mean weekly weight ([2]; 0.7% of diet, week 0) | mean weekly weight ([2]; 0.7% of diet, week 1) | mean weekly weight ([2]; 0.7% of diet, week 2) | mean weekly weight ([2]; 0.7% of diet, week 3) | mean weekly weight ([2]; 0.7% of diet, week 4) | mean weekly weight ([2]; 0.7% of diet, week 5) | blocking the TPA stimulation in DNA synthesis rate, compared with DHEA (in words) [4] | also measured
C[C@]12CCCC[C@@H]1CC[C@@H]1[C@@H]2CC[C@]2(C)C(=O)CC[C@@H]12 [Compound 3] | 10% | 69% | 80% | 21.8 ± 2.2 grams | 22.6 ± 1.8 grams | 23.6 ± 1.8 grams | 24.8 ± 1.8 grams | 24.6 ± 1.8 grams | 24.8 ± 1.9 grams | 21.6 ± 2.6 grams | 20.0 ± 1.9 grams | 21.3 ± 1.8 grams | 21.8 ± 1.6 grams | 22.0 ± 1.6 grams | 21.4 ± 1.1 grams | more active in blocking the TPA stimulation in DNA synthesis rate | activity compared with DHEA, TPA stimulation (in words) ([3]; 200 mg/kg oral): somewhat more active than DHEA
C[C@]12CC[C@H](O)C[C@@H]1CC[C@@H]1[C@@H]2CC[C@]2(C)C(=O)[C@H](Br)C[C@@H]12 [16α-bromo-epiandrosterone, 3β-hydroxy-16α-bromo-5α-androstan-17-one] |  |  |  |  |  |  |  |  |  |  |  |  |  |  |  |  | rate of [3H] thymidine incorporation into breast epithelium (in words) (mouse breast epithilum): more active than DHEA; inhibition of Epstein-Barr virus-induced transformation (in words) [5]: inhibitors of Epstein-Barr virus-induced transformation of human lymphocytes; 3H-thymidine incorporation in mouse epidermis (in words) [6]: more active than DHEA; inhibition of mammalian G6PDH (in words) [7]: more potent inhibitor of mammalian G6PDH than DHEA; inhibition of mammalian G6PDH (in words) ([7]; listed as 16α-Br-epiandrosterone): more active than DHEA in inhibiting G6PDH
C[C@]12CC[C@H](O)C[C@@H]1CC[C@@H]1[C@@H]2CC[C@]2(C)C(=O)CC[C@@H]12 [Compound 2] | 36% | 64% | 82% | 21.8 ± 1.6 grams | 21.8 ± 1.3 grams | 22.0 ± 1.2 grams | 22.8 ± 1.3 grams | 24.2 ± 1.1 grams | 24.4 ± 1.7 grams | 21.3 ± 1.8 grams | 20.6 ± 2.3 grams | 20.6 ± 0.5 grams | 20.8 ± 0.8 grams | 22.6 ± 0.6 grams | 22.4 ± 0.5 grams | about as active as DHEA | Mean Uterine Weight (rat uterus; 10 mg/kg s.c.): 151 ± 32 Mgs; Mean Uterine Weight (rat uterus; 60 mg/kg s.c.): 127 ± 32 Mgs; estrogenic activity (in words) (rat uterus; rat uterotrophic test, s.c.): Neither compounds 16 nor 2 are estrogenic; mean weekly weight ([2]; 0.35% of diet, week 6): 24.8 ± 1.5 grams; mean weekly weight ([2]; 0.35% of diet, week 7): 25.4 ± 1.7 grams; mean weekly weight ([2]; 0.7% of diet, week 6): 23.5 ± 0.9 grams; mean weekly weight ([2]; 0.7% of diet, week 7): 23.8 ± 0.8 grams; blocking the TPA stimulation in DNA synthesis rate (in words) ([3]; 200 mg/kg or 100 mg/kg oral): not active at 200 mg/kg or 100 mg/kg
